# Test results from patent publication US20120142646A1, “Novel Compounds 621” (priority 2006, published 2012).
# Where a name gives a salt, the structure may show the parent alone.
# Molecular target: T1, Adrenergic β2 (Homo sapiens, UniProt P07550)
# T1 construct: Adherent H292 cells were removed from tissue culture flasks; endogenous in cells; host or cells: H292 cells
# Test: Adrenergic β2 mediated cAMP production in H292 cells (AlphaScreen cAMP detection)
# Type: cell-based
# Parameters: key to β2 Int Act: fraction of formoterol maximum activity (formoterol = 1)
# Details: Intrinsic Activity as a fraction relative to the maximum activity determined for formoterol
# In short: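 H292 cells pre-treated 10 min with rolipram (300 μM final), then given agonist for 60 min at room temperature in HBSS/10 mM HEPES pH 7.4, 1.6% DMSO final. Lysate cAMP measured by AlphaScreen against a cAMP standard curve. Four-parameter fit gives pEC50; intrinsic activity relative to formoterol maximum.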
# T1 sequence (P07550 whole entry): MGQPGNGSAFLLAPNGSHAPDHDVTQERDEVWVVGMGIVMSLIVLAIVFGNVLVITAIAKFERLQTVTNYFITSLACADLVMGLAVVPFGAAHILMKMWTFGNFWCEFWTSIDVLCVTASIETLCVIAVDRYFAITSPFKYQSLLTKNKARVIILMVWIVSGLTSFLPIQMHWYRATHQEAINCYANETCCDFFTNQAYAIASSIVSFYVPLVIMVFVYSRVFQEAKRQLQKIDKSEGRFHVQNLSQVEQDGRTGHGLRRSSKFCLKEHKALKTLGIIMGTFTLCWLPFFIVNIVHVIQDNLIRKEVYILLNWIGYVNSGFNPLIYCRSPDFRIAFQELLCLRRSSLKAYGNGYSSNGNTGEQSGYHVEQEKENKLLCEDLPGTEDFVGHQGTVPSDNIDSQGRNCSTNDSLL
row,β2 Int Act,Compound
1,0.98,"O=C1COc2c(CCNCCN(C(=O)CCNCCc3cc(F)ccc3F)C3CCCCC3)ccc(O)c2N1 [Example 38, N-Cyclohexyl-3-(2,5-difluorophenethylamino)-N-(2-(2-(5-hydroxy-3-oxo-3,4-dihydro-2H-benzo[b][1,4]oxazin-8-yl)ethylamino)ethyl)propanamide bis(trifluoroacetate)]"
2,0.89,"CCCC[C@@H](C)N(CCNCCc1ccc(O)c2c1OCC(=O)N2)C(=O)CCNCCc1cccc(Cl)c1 [Example 44, (R)-3-(3-Chlorophenethylamino)-N-(hexan-2-yl)-N-(2-(2-(5-hydroxy-3-oxo-3,4-dihydro-2H-benzo[b][1,4]oxazin-8-yl)ethylamino)ethyl)propanamide bis(trifluoroacetate)]"
3,0.94,"CCCC[C@@H](C)N(CCNCCc1ccc(O)c2c1OCC(=O)N2)C(=O)CCNCCc1cc(F)cc(F)c1 [Example 51, (R)-3-(3,5-Difluorophenethylamino)-N-(hexan-2-yl)-N-(2-(2-(5-hydroxy-3-oxo-3,4-dihydro-2H-benzo[b][1,4]oxazin-8-yl)ethylamino)ethyl)propanamide bis(trifluoroacetate)]"
4,0.87,"O=C1COc2c(CCNCCN(C(=O)CCNCCc3ccc(F)c(F)c3)C3CCCCCC3)ccc(O)c2N1 [Example 67, N-Cycloheptyl-3-(3,4-difluorophenethylamino)-N-(2-(2-(5-hydroxy-3-oxo-3,4-dihydro-2H-benzo[b][1,4]oxazin-8-yl)ethylamino)ethyl)propanamide bis(trifluoroacetate)]"
5,0.9,"CCCCN(CCNCCc1ccc(O)c2[nH]c(=O)ccc12)C(=O)CCOCCc1ccccc1 [Example 1, N-Butyl-N-(2-(2-(8-hydroxy-2-oxo-1,2-dihydroquinolin-5-yl)ethylamino)ethyl)-3-phenethoxypropanamide hydrochloride]"
6,0.91,"CCCC[C@@H](C)N(CCNCCc1ccc(O)c2c1OCC(=O)N2)C(=O)CCNCCc1cc(C)ccc1F [Example 56, (R)-3-(2-Fluoro-5-methylphenethylamino)-N-(hexan-2-yl)-N-(2-(2-(5-hydroxy-3-oxo-3,4-dihydro-2H-benzo[b][1,4]oxazin-8-yl)ethylamino)ethyl)propanamide bis(trifluoroacetate)]"
